Tests used:
A549 cells [1] = experiment: Charred TLC of cellular lipids after exchange; format: cell-based, human; conditions: exchange with 3 mM exogenous POPC and MαCD, 1 hour; FIG. 5C lane 4
Description: High Performance Thin Layer Chromatography. The samples and pure lipid standards were dissolved in 1:1 (v:v) chloroform/methanol. […] The dissolved lipids then applied to HP-TLC (Silica Gel 60) plates (Merck, KGaA, Darmstadt, Germany) or Uniplate Silica Gel G plates (Analtech, Inc., Newark, Del.) and chromatographed in 65:25:5 (v:v) chloroform/methanol/28.0-30.0 (v/v) % ammonium hydroxide. Following chromatography, the TLC plates were air-dried and saturated with 3% (w/v) cupric-acetate-8% (v/v) phosphoric acid by spraying, and then air-dried again. Plates were then charred at 180° C. to develop lipid bands. Lipid band intensity was measured using Image J software (National Institutes of Health). Lipids in samples were quantified by comparing background-subtracted band intensity with that of a curve composed of various standard amounts of each lipid chromatographed on the same TLC plate. The intensity in the standard bands was fit to a linear intensity versus lipid quantity curve.
Analysis of exogenous lipid exchange over time after delivery into A549 cells. After a 1 h at 37° C. treatment with 40 mM MαCD mixed with 1.5 mM bSM, A549 cells were washed three times with DPBS. Then the cells were cultured for 0, 2, 4, and 6 hours in 10 mL RPMI 1640 medium supplemented with 10% fetal bovine serum. […]

A549 cells [2] = experiment: Cell morphology (cell rounding) and cell condition during incubation with MαCD and lipids
Description: In certain embodiments, the appropriate lipid concentration can be determined prior to implementing the exchange methods of the instant disclosure. For example, the optimal lipid concentration can be determined by screening a series of various lipid concentrations. For example, cyclodextrin-lipid complexes of the present disclosure can be formed using a constant alpha-cyclodextrin concentration and varying lipid. Once various solutions of cyclodextrin and lipid are made they can be applied to cells using the methods described herein. This will enable the user to identify the highest concentration(s) lipids where the cells are not negatively affected, i.e., no cell rounding over time is optimal for lipid exchange, as it minimizes cell loss during processing. This can be determined, for example, by splitting cells into each well of a multi-well plate one day before the experiment and growing the cells to confluence. Then equal aliquots of the solutions having various concentrations of lipid are placed in separate wells and incubated at 37° C. for 1-2 hours.
In certain embodiments, the appropriate cyclodextrin concentration can be determined prior to implementing the exchange methods of the instant disclosure. For example, the optimal cyclodextrin concentration can be determined by screening a series of various cyclodextrin concentrations. For example, cyclodextrin-lipid complexes of the present disclosure can be formed using a constant lipid concentration but varying alpha-cyclodextrin concentration. Once various solutions of cyclodextrin and lipid are made they can be applied to cells using the methods described herein. […] This can be determined, for example, by splitting cells into each well of a multi-well plate one day before the experiment and growing the cells to confluence. Then equal aliquots of the solutions having various concentrations of cyclodextrin are placed in separate wells and incubated at 37° C. for 1-2 hours.
In some embodiments, the instructions for the analysis of lipid exchange include methods for identifying optimal concentrations of lipids and/or cyclodextrins for use in exchanging lipids between a cyclodextrin-lipid complex of the present disclosure and a cell membrane. […] As such, instructions included within kits of the instant disclosure can include, instructions for screening a series of various cyclodextrin or lipid concentrations. For example, the instructions can include maintaining a constant lipid concentration and altering numerous alpha-cyclodextrin concentrations or vice versa. […] This can be determined, for example, by splitting cells into each well of a multi-well plate one day before the experiment and growing the cells to confluency. […]

A549 cells [3] = experiment: Phospholipid content by LC/MS/MS after lipid exchange; format: cell-based, human; conditions: mass spectrometry
Description: Exchange of Lipids between Cells and Cyclodextrin-lipid Complexes. Unless otherwise noted, the cells are cultured in 10 cm plates with 10 mL medium. After removing the growth medium and washing three times with 10 ml DPBS, a 1500 μL aliquot of cyclodextrin-lipid complex containing MαCD (formed using 1.5 mM lipid and 40 mM MαCD concentrations) was added to 90% confluent mammalian cells cultured in […] cell culture dishes (Corning Incorporated, Durham, N.C.). The cells were then incubated with the cyclodextrin-lipid complex for 1 hour at 37° C., unless otherwise noted. After removal of the cyclodextrin-lipid complex and three washes with 10 mL PBS the cells were removed from the plate by scraping in 5 mL PBS. The cells were then pelleted by centrifugation for 3 minutes at 3,000 rpm and the lipid composition of the pellet was analyzed. […]
Phospholipid Content by LCMS/M S: Phospholipids were extracted from samples as set forth above. […] The class specific phospholipid extracts for each sample were injected on an Agilent (Santa Clara Calif., USA) Eclipse XDB-C8 reversed phase column (4.6×50 mm, 1.8 μm particle size) for separation of molecular species within each class by gradient elution and detected by mass spectrometry utilizing scheduled multiple reaction monitoring. In this manner, a peak with unique column elution time and mass-to-fragment profile was measured. […]

A549 cells [4] = experiment: Dithionite quenching of the NBD-DPPE exchanged into the cells; format: cell-based, human
Description: Dithionite Quenching of the NBD-DPPE Exchanged into the Cells. Cells into which NBD-DPPE was exchanged were prepared as described above, except at either 15° C., room temperature (23° C.) or 37° C. Fluorescence was measured before and (as a function of time) after the addition of a freshly prepared solution of IM dithionite in IM Tris buffer (pH 10) to the cells providing a final dithionite concentration of 50 mM.

A549 cells [5] = experiment: Delivery of fluorescent NBD-DPPE into cells, kinetics of exchange; format: cell-based, human
Description: Microscopy and Kinetics of Exchange Monitored with Fluorescent Probes and ^3H Acetate: Cyclodextrin-lipid complex containing 1.5 mM lipid (90% bSM and 10% NBD-DPPE) and 40 mM MαCD was prepared. Then, 500 μl of the cyclodextrin-lipid complex was added to 90% confluent A549 cells cultured in 6-well plates (Corning Inc., Durham, N.C.). The cells were incubated for different times at 37° C., and then the cyclodextrin-lipid complex was removed. After three washes with 2 ml PBS the cells were removed from the plate by scraping in 1 ml PBS. The cells were pelleted by centrifugation at 3,000 rpm for 3 minutes and re-suspended in 1 ml PBS. Seven μl aliquots of cells were loaded on microscope slides and covered with a, coverslip. NBD fluorescence was then imaged by confocal laser scanning microscopy using a Zeiss LSM 5 Pascal confocal laser scanning microscope system (Carl Zeiss AG, German).
In other experiments, fluorescence intensity was measured for the each well of cells whereby cells were placed in fluorescence cuvettes using Fluorolog (Jobin Yvon Horiba, Edison, N.J.) with an excitation wavelength of 465 nm and emission wavelength of 534 nm. A non-specific lipid transfer control was prepared in a similar fashion without cyclodextrin.
In an analogous experiment, A549 cells were ^3H labeled and subjected to lipid exchange with cyclodextrin-lipid complex. The cells were collected at different times and lipids extracted and separated on TLC as described above. Radioactivity in the PS+PI and SM bands was subsequently measured by scintillation counting.

MDA-MB-231 cells = experiment: Transferrin (TF) endocytosis; format: cell-based; conditions: cholesterol depletion, 10 mM MβCD, 30 min, 37° C.
Description: Measurement of Transferrin (TF) Endocytosis. MDA-MB-231 cells were plated in 2 ml RPMI 1640 at 6×10^5 on a coverslip in a 35 mm dish. After 1 d, they were subjected to cholesterol depletion or phospholipid exchange. For cholesterol depletion, cells were washed with 1 ml DPBS (2-3 times) and treated with 10 mM M MβCD/DMEM for 30 min at 37° C. in the CO2 incubator. For phospholipid substitution, the DPBS washed cells were treated with mixture of 40 mM MαCD and a combination of 0.75 mM bSM and 0.75 mM POPC in serum free medium for 30 rain, again while maintained at 37° C. in the CO2 incubator. After cholesterol depletion or phospholipid exchange, cells were washed with 1 ml DPBS three times. Then 50 μg/ml TF-AF488 in DMEM was added to the cells and incubated for 10 min in room temperature in the dark. Next, cells were washed with 2 ml DPBS three times and subjected to an additional 3 washes on ice with an acid solution (100 mM citric acid, 140 mM NaCl in distilled water pH adjusted to 1.75), incubating the cells with the solution for 3 min during each wash. The acid wash solution was removed by washing three times with 2 ml of 1×PBS and the cells then fixed using 2 ml 3% PFA for 30 min (10 min on ice and 20 min at room temperature). […]

Molecule: 1-palmitoyl-2-oleoyl-sn-glycerol-3-phosphocholine [POPC]
- removal of endogenous SM (A549 cells [1]): most endogenous SM was removed
- incubation time at which normal morphology begins to change (A549 cells [2]; 3 mM POPC, 40 mM MαCD): ≈45′
- incubation time at which normal morphology begins to change (A549 cells [2]; 3 mM POPC, 80 mM MαCD): ≈15′
- incubation time at which normal morphology begins to change (A549 cells [2]; 6 mM POPC, 40 mM MαCD): ≈45′
- incubation time at which normal morphology begins to change (A549 cells [2]; […] POPC, 40 mM MαCD): ≈15′

Molecule: CCCCCCCCCCCCC/C=C/[C@@H](O)[C@H](COP(=O)([O-])OCC[N+](C)(C)C)NC(=O)CCCCCCCCCCCCCCCC [C17:0 SM, N-hepadecanoyl-D-erythro-sphingosylphosphorylcholine]
- exogenous C17:0 SM in cells after exchange relative to total endogenous cell SM prior to exchange (A549 cells [3]): 2.1 fold

Molecule: CCCCCCCCCCCCCCCC(=O)OC[C@H](COP(=O)(O)OCCNc1ccc([N+](=O)[O-])c2nonc12)OC(=O)CCCCCCCCCCCCCCC [NBD-DPPE, 1,2-dipalmitoyl-sn-glycero-3-phosphoethanolamine-N-(7-nitro-2-1,3-benzoxadiazol-4-yl)]
- NBD-lipid exchanged into cells accessible to dithionite (A549 cells [4]; FIG. 3B): 70-80%
- fluorescence protected from dithionite reduction (A549 cells [4]; incubation at 15° C.): about 20%
- fluorescence protected from dithionite reduction (A549 cells [4]; incubation at 37° C., extrapolated to time zero): approximately 30%
- half-time of delivery of NBD-DPPE and removal of endogenous SM (A549 cells [5]; 37° C., FIG. 2A): 15 to 20 min
- Half-time of lipid exchange (endogenous SM removal / NBD-DPPE delivery) (A549 cells [5]; A549 cells, 37° C., FIG. 2A legend): 10 to 15 min

Molecule: OC[C@H]1O[C@@](CO)(O[C@H]2O[C@H](CO)[C@@H](O)[C@H](O)[C@H]2O)[C@@H](O)[C@@H]1O [sucrose]
- amount of fluorescent lipid delivered to cells relative to buffer only (A549 cells [5]; 40 or 240 mM sucrose substituted for MαCD): did not increase

Molecule: Methyl-β-cyclodextrin [MβCD]
- clathrin-mediated endocytosis of transferrin (MDA-MB-231 cells): strongly inhibited
